From US9522907B2, “Anticancer agent and process for the preparation thereof” (COUNCIL OF SCIENTIFIC & INDUSTRIAL RESEARCH, priority 2014, dated 2016)

What was measured:
OVCAR-8 = assay: NCI in vitro cytotoxicity, OVCAR-8; details: Homo sapiens
Text: (§3) For these compounds results are expressed as growth inhibition (GI50) values as per NCI protocol.

HL-60 (TB) = assay: NCI in vitro cytotoxicity, HL-60 (TB); assay type: cell-based; details: Homo sapiens, Leukemia
MOLT-4 = assay: NCI in vitro cytotoxicity, MOLT-4; details: Homo sapiens
Text: as §3

UACC-257 = assay: NCI in vitro cytotoxicity, UACC-257; details: Homo sapiens
Text: as §3

SK-OV-3 = assay: NCI in vitro cytotoxicity, SK-OV-3; details: Homo sapiens
Text: as §3

M14 = assay: NCI in vitro cytotoxicity, M14; details: Homo sapiens
Text: as §3

KM12 = assay: NCI in vitro cytotoxicity, KM12; details: Homo sapiens
Text: as §3

HT29 = assay: NCI in vitro cytotoxicity, HT29; details: Homo sapiens, HT-29
Text: as §3

LOX IMVI = assay: NCI in vitro cytotoxicity, LOX IMVI; details: Homo sapiens
Text: as §3

HOP-92 = assay: NCI in vitro cytotoxicity, HOP-92; details: Homo sapiens
Text: as §3

SK-MEL-28 = assay: NCI in vitro cytotoxicity, SK-MEL-28; details: Homo sapiens
Text: as §3

HCT-15 = assay: NCI in vitro cytotoxicity, HCT-15; details: Homo sapiens
Text: as §3

SW-620 = assay: NCI in vitro cytotoxicity, SW-620; details: Homo sapiens
Text: as §3

SN 12C = assay: NCI in vitro cytotoxicity, SN 12C; details: Homo sapiens, SN12C
Text: as §3

MDA-MB-468 = assay: NCI in vitro cytotoxicity, MDA-MB-468; details: Homo sapiens
Text: as §3

HOP-62 = assay: NCI in vitro cytotoxicity, HOP-62; details: Homo sapiens
Text: as §3

IGROV 1 = assay: NCI in vitro cytotoxicity, IGROV 1; details: Homo sapiens
Text: as §3

HS 578T = assay: NCI in vitro cytotoxicity, HS 578T; details: Homo sapiens
Text: as §3

OVCAR-3 = assay: NCI in vitro cytotoxicity, OVCAR-3; details: Homo sapiens
Text: as §3

EKVX = assay: NCI in vitro cytotoxicity, EKVX; details: Homo sapiens
Text: as §3

SR (leukemia cell line) = assay: NCI in vitro cytotoxicity, SR; details: Homo sapiens
Text: as §3

CAKI-1 = assay: NCI in vitro cytotoxicity, CAKI-1; details: Homo sapiens
Text: as §3

[1] = tested on: Melanoma cancer cell lines; assay: cells; assay type: cell-based
Text: (§1) The mean graph midpoint values of Log10 GI50 as well as Log10 LC50 for the compounds 2i, 5i and Hoechst 33258 (NSC-322921) is listed in Table 2.
(§2) Each cancer type represents the average of six to eight different cancer cell lines.

Renal cancer cell lines = assay: cells; assay type: cell-based
Text: as §1, §2

Colon cancer cell lines = assay: cells; assay type: cell-based
Text: as §1, §2

Breast cancer cell lines = assay: cells; assay type: cell-based
Text: as §1, §2

CNS cancer cell lines = assay: cells; assay type: cell-based
Text: as §1, §2

[2] = tested on: Prostate cancer cell lines; assay: cells; assay type: cell-based
Text: as §1, §2

[3] = tested on: Ovarian cancer cell lines; assay: cells; assay type: cell-based
Text: as §1, §2

[4] = tested on: Leukemia cancer cell lines; assay: cells; assay type: cell-based
Text: as §1, §2

[5] = tested on: Non-small-cell lung cancer cell lines; assay: cells; assay type: cell-based
Text: as §1, §2

NCI-H226 = assay: NCI in vitro cytotoxicity, NCI-H226; details: Homo sapiens
Text: as §3

SF-268 = assay: NCI in vitro cytotoxicity, SF-268; details: Homo sapiens
Text: as §3

A498 = assay: NCI in vitro cytotoxicity, A498; details: Homo sapiens
Text: as §3

OVCAR-4 = assay: NCI in vitro cytotoxicity, OVCAR-4; details: Homo sapiens
Text: as §3

UACC-62 = assay: NCI in vitro cytotoxicity, UACC-62; details: Homo sapiens
Text: as §3

PC-3 = assay: NCI in vitro cytotoxicity, PC-3; details: Homo sapiens
Text: as §3

DU-145 = assay: NCI in vitro cytotoxicity, DU-145; details: Homo sapiens
Text: as §3

CCRF-CEM = assay: NCI in vitro cytotoxicity, CCRF-CEM; details: Homo sapiens
Text: as §3

A549/ATCC = assay: NCI in vitro cytotoxicity, A549/ATCC; details: Homo sapiens
Text: as §3

HCT-116 = assay: NCI in vitro cytotoxicity, HCT-116; details: Homo sapiens
Text: as §3

[6] = Homo sapiens, read-out: Log10 LC50 mean graph midpoint (MG_MID) (converted)

Structure (SMILES): COc1cc(-c2nc(-c3ccc(-c4nc5cc(F)ccc5[nH]4)cc3)no2)cc(OC)c1OC [2i, 3-(4-(5-Fluoro-1H-benzo[d]imidazol-2-yl)phenyl)-5-(3,4,5-trimethoxyphenyl)-1,2,4-oxadiazole]
- GI50 (OVCAR-8): 2.36 µM
- GI50 (HL-60 (TB)): 2.24 µM
- GI50 (MOLT-4): 1.99 µM
- GI50 (UACC-257): 3.7 µM
- GI50 (SK-OV-3): 4.12 µM
- GI50 (M14): 3.23 µM
- GI50 (KM12): 3.08 µM
- GI50 (HT29): 3.69 µM
- GI50 (LOX IMVI): 1.65 µM
- GI50 (HOP-92): 1.76 µM
- GI50 (SK-MEL-28): 3.78 µM
- GI50 (HCT-15): 3.15 µM
- GI50 (SW-620): 3.61 µM
- GI50 (SN 12C): 3.59 µM
- GI50 (MDA-MB-468): 3.01 µM
- GI50 (HOP-62): 3.21 µM
- GI50 (IGROV 1): 3.81 µM
- GI50 (HS 578T): 2.27 µM
- GI50 (OVCAR-3): 2.56 µM
- GI50 (EKVX): 3.45 µM
- GI50 (SR (leukemia cell line)): 2.98 µM
- GI50 (CAKI-1): 2.76 µM
- LC50 [1, 6]: 35.5 µM
- Log10 GI50 mean graph midpoint (MG_MID) ([1]; Melanoma, average of cell lines of the cancer type): −5.55
- CC50 (Renal cancer cell lines; [6]): 79.4 µM
- Log10 GI50 mean graph midpoint (MG_MID) (Renal cancer cell lines; Renal, average of cell lines of the cancer type): −5.45
- Log10 GI50 mean graph midpoint (MG_MID) (Colon cancer cell lines; Colon, average of cell lines of the cancer type): −5.44
- LC50 (Colon cancer cell lines; [6]): 75.9 µM
- Log10 GI50 mean graph midpoint (MG_MID) (Breast cancer cell lines; Breast, average of cell lines of the cancer type): −5.55
- CC50 (Breast cancer cell lines; [6]): 93.3 µM
- Log10 GI50 mean graph midpoint (MG_MID) (CNS cancer cell lines; CNS, average of cell lines of the cancer type): −5.39
- CC50 (CNS cancer cell lines; [6]): 91.2 µM
- CC50 [2, 6]: ≥ 100 µM
- Log10 GI50 mean graph midpoint (MG_MID) ([2]; Prostate, average of cell lines of the cancer type): −5.51
- CC50 [3, 6]: 87.1 µM
- Log10 GI50 mean graph midpoint (MG_MID) ([3]; Ovarian, average of cell lines of the cancer type): −5.49
- LC50 (50% lethal concentration, NCI mean graph midpoint) [4, 6]: ≥ 100 µM
- Log10 GI50 mean graph midpoint (MG_MID) ([4]; Leukemia, average of cell lines of the cancer type): −5.64
- LC50 (lethal concentration 50%) [5, 6]: 75.9 µM
- Log10 GI50 mean graph midpoint (MG_MID) ([5]; Non-small-cell lung, average of cell lines of the cancer type): −5.47
- GI50 (NCI-H226): 2.72 µM
- GI50 (SF-268): 3.99 µM
- GI50 (A498): 4.19 µM
- GI50 (OVCAR-4): 2.82 µM
- GI50 (UACC-62): 2.35 µM
- GI50 (PC-3): 2.33 µM
- GI50 (DU-145): 3.96 µM
- GI50 (CCRF-CEM): 2.97 µM
- GI50 (A549/ATCC): 3.42 µM
- GI50 (HCT-116): 2.13 µM
